Assays:
Assay in all cases: relative viability (nuclei count vs DMSO), 5 days (fraction); higher = more cells survive
HARA = system: HARA
How it was run: (§1)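 Values are medians from duplicate plates. Each reflects relative viability, defined as the nuclei count of treated wells over that of vehicle wells. Lung cancer cell lines in 1536-well plates were pin-tool dosed one day after seeding with one drug alone or with a fixed anchor-drug dose plus five library-drug doses (not always all listed) in √10 steps, then fixed, stained and imaged at 4× after 5 days.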

NCI-H1915 = system: NCI-H1915
How it was run: as §1

NCI-H1395 = system: NCI-H1395
How it was run: as §1

EMC-BAC-2 = system: EMC-BAC-2
How it was run: as §1

NCI-H1437 = system: NCI-H1437
How it was run: as §1

NCI-H460 = system: NCI-H460
How it was run: as §1

NCI-H522 = system: NCI-H522
How it was run: as §1

LCLC-103H = system: LCLC-103H
How it was run: as §1

CAL-12T = system: CAL-12T
How it was run: as §1

NCI-H727 = system: NCI-H727
How it was run: as §1

NCI-H23 = system: NCI-H23
How it was run: as §1

SW 1573 = system: SW 1573
How it was run: as §1

COR-L 105 = system: COR-L 105
How it was run: as §1

A-427 = system: A-427
How it was run: as §1

NCI-H2228 = system: NCI-H2228
How it was run: as §1

NCI-H2009 = system: NCI-H2009
How it was run: as §1

HCC-366 = system: HCC-366
How it was run: as §1

HCC-827 = system: HCC-827
How it was run: as §1

HOP-62 = system: HOP-62
How it was run: as §1

NCI-H1755 = system: NCI-H1755
How it was run: as §1

SK-LU-1 = system: SK-LU-1
How it was run: as §1

Q: Which results are given for `Cc1sc2c(c1C)C(c1ccc(Cl)cc1)=N[C@@H](CC(=O)OC(C)(C)C)c1nnc(C)n1-2` [JQ1] + Cc1cc(Nc2cc(N3CCN(C)CC3)nc(Sc3ccc(NC(=O)C4CC4)cc3)n2)n[nH]1 [Tozasertib] (partner 0.1 µM)?
A: relative viability (HARA; first compound 0.04 µM): 0.112; relative viability (HARA; first compound 0.1265 µM): 0.122; relative viability (HARA; first compound 0.4 µM): 0.123; relative viability (HARA; first compound 1.265 µM): 0.08; relative viability (HARA; first compound 4 µM): 0.0561; relative viability (NCI-H1915; first compound 0.04 µM): 0.439; relative viability (NCI-H1915; first compound 0.1265 µM): 0.344; relative viability (NCI-H1915; first compound 0.4 µM): 0.325; relative viability (NCI-H1915; first compound 1.265 µM): 0.218; relative viability (NCI-H1915; first compound 4 µM): 0.15; relative viability (NCI-H1395; first compound 0.04 µM): 0.734; relative viability (NCI-H1395; first compound 0.1265 µM): 0.681; relative viability (NCI-H1395; first compound 0.4 µM): 0.652; relative viability (NCI-H1395; first compound 1.265 µM): 0.495; relative viability (NCI-H1395; first compound 4 µM): 0.419; relative viability (EMC-BAC-2; first compound 0.04 µM): 0.248; relative viability (EMC-BAC-2; first compound 0.1265 µM): 0.235; relative viability (EMC-BAC-2; first compound 0.4 µM): 0.221; relative viability (EMC-BAC-2; first compound 1.265 µM): 0.174; relative viability (EMC-BAC-2; first compound 4 µM): 0.174; relative viability (NCI-H1437; first compound 0.04 µM): 0.421; relative viability (NCI-H1437; first compound 0.1265 µM): 0.357; relative viability (NCI-H1437; first compound 0.4 µM): 0.357; relative viability (NCI-H1437; first compound 1.265 µM): 0.224; relative viability (NCI-H1437; first compound 4 µM): 0.174; relative viability (NCI-H460; first compound 0.04 µM): 0.402; relative viability (NCI-H460; first compound 0.4 µM): 0.119; relative viability (NCI-H460; first compound 1.265 µM): 0.0684; relative viability (NCI-H460; first compound 4 µM): 0.0339; relative viability (NCI-H522; first compound 0.04 µM): 0.598; relative viability (NCI-H522; first compound 0.1265 µM): 0.503; relative viability (NCI-H522; first compound 0.4 µM): 0.454; relative viability (NCI-H522; first compound 1.265 µM): 0.434; relative viability (NCI-H522; first compound 4 µM): 0.339; relative viability (LCLC-103H; first compound 0.04 µM): 0.429; relative viability (LCLC-103H; first compound 0.1265 µM): 0.384; relative viability (LCLC-103H; first compound 0.4 µM): 0.288; relative viability (LCLC-103H; first compound 1.265 µM): 0.289; relative viability (LCLC-103H; first compound 4 µM): 0.171; relative viability (CAL-12T; first compound 0.04 µM): 0.274; relative viability (CAL-12T; first compound 0.1265 µM): 0.238; relative viability (CAL-12T; first compound 0.4 µM): 0.24; relative viability (CAL-12T; first compound 1.265 µM): 0.132; relative viability (CAL-12T; first compound 4 µM): 0.122; relative viability (NCI-H727; first compound 0.04 µM): 0.714; relative viability (NCI-H727; first compound 0.1265 µM): 0.516; relative viability (NCI-H727; first compound 0.4 µM): 0.459; relative viability (NCI-H727; first compound 1.265 µM): 0.397; relative viability (NCI-H727; first compound 4 µM): 0.387; relative viability (NCI-H23; first compound 0.04 µM): 0.263; relative viability (NCI-H23; first compound 0.1265 µM): 0.253; relative viability (NCI-H23; first compound 0.4 µM): 0.279; relative viability (NCI-H23; first compound 1.265 µM): 0.147; relative viability (NCI-H23; first compound 4 µM): 0.138; relative viability (SW 1573; first compound 0.04 µM): 0.182; relative viability (SW 1573; first compound 0.1265 µM): 0.137; relative viability (SW 1573; first compound 0.4 µM): 0.181; relative viability (SW 1573; first compound 1.265 µM): 0.141; relative viability (SW 1573; first compound 4 µM): 0.16; relative viability (COR-L 105; first compound 0.04 µM): 0.359; relative viability (COR-L 105; first compound 0.1265 µM): 0.315; relative viability (COR-L 105; first compound 0.4 µM): 0.297; relative viability (COR-L 105; first compound 1.265 µM): 0.235; relative viability (COR-L 105; first compound 4 µM): 0.112; relative viability (A-427; first compound 0.04 µM): 0.195; relative viability (A-427; first compound 0.1265 µM): 0.188; relative viability (A-427; first compound 0.4 µM): 0.173; relative viability (A-427; first compound 1.265 µM): 0.131; relative viability (A-427; first compound 4 µM): 0.125; relative viability (NCI-H2228; first compound 0.04 µM): 0.286; relative viability (NCI-H2228; first compound 0.1265 µM): 0.284; relative viability (NCI-H2228; first compound 0.4 µM): 0.207; relative viability (NCI-H2228; first compound 1.265 µM): 0.126; relative viability (NCI-H2228; first compound 4 µM): 0.08; relative viability (NCI-H2009; first compound 0.04 µM): 0.697; relative viability (NCI-H2009; first compound 0.1265 µM): 0.414; relative viability (NCI-H2009; first compound 0.4 µM): 0.385; relative viability (NCI-H2009; first compound 1.265 µM): 0.199; relative viability (NCI-H2009; first compound 4 µM): 0.187; relative viability (HCC-366; first compound 0.04 µM): 0.112; relative viability (HCC-366; first compound 0.4 µM): 0.0922; relative viability (HCC-366; first compound 1.265 µM): 0.0515; relative viability (HCC-366; first compound 4 µM): 0.0708; relative viability (HCC-827; first compound 0.04 µM): 0.398; relative viability (HCC-827; first compound 0.4 µM): 0.328; relative viability (HCC-827; first compound 1.265 µM): 0.27; relative viability (HCC-827; first compound 4 µM): 0.213; relative viability (HOP-62; first compound 0.04 µM): 0.361; relative viability (HOP-62; first compound 0.1265 µM): 0.305; relative viability (HOP-62; first compound 0.4 µM): 0.192; relative viability (HOP-62; first compound 1.265 µM): 0.122; relative viability (HOP-62; first compound 4 µM): 0.122; relative viability (NCI-H1755; first compound 0.04 µM): 0.587; relative viability (NCI-H1755; first compound 0.1265 µM): 0.584; relative viability (NCI-H1755; first compound 0.4 µM): 0.566; relative viability (NCI-H1755; first compound 1.265 µM): 0.444; relative viability (NCI-H1755; first compound 4 µM): 0.411; relative viability (SK-LU-1; first compound 0.04 µM): 0.282; relative viability (SK-LU-1; first compound 0.1265 µM): 0.27; relative viability (SK-LU-1; first compound 0.4 µM): 0.249; relative viability (SK-LU-1; first compound 1.265 µM): 0.0708; relative viability (SK-LU-1; first compound 4 µM): 0.0741
